Experimental data taken from paper PMC5731860, “Novel allylated monocarbonyl analogs of curcumin induce mitotic arrest and apoptosis by reactive oxygen species-mediated endoplasmic reticulum stress and inhibition of STAT3” (Oncotarget, 2017).
“Also recorded” adds a separate entry of the source.

How the values were obtained:
[1] = test system: SW-480; assay: MTT assay, growth inhibition; format: cell-based, human; conditions: Homo sapiens, SW480, 24 h
Procedure: (§1) First, we investigated whether allylated MAC alter the viability or have cytotoxic effects on cells in culture. We have performed MTT tetrazolium reduction assay following exposure of cancer cells (gastric cancer, BGC823 and SGC-7901; colon cancer, HT-29, HCT-116 and SW-480) and normal gastric epithelial cells (GES-1) to all 20 allylated MAC at a concentration of 20 μM for 24 h. […] In addition, we also found notable solubility and stability profile of these compounds (Supplementary Figure 1).
(§2) Cells were plated at a density of 8 × 10^3 cells/well in 96-well plates and allowed to attach overnight. Stock solutions of allylated MAC and curcumin were prepared in DMSO and diluted in culture media to obtain appropriate concentration. Cells were treated for 24 h and 48 h, following which, 20 μL of 5 mg/ml MTT reagent was added. Purple formazan product was dissolved by the addition of 100 μL DMSO to each well. Absorbance was then monitored at 490 nm using a plate reader (Molecular Device Spectra MAX190, USA). Percentage of cytotoxicity was determined using the following formula: Growth inhibition (%) = (OD of control−OD of test/OD of control×100%).

[2] = test system: HCT-116; assay: MTT assay, growth inhibition; format: cell-based, human
Procedure: as §1, §2

[3] = test system: p-STAT3; assay: Western blot of p-STAT3; format: cell-based, human; conditions: SGC-7901, western blot, 1, 3, 6 and 12 h; total STAT3 not changed
Procedure: (§3) Protein samples were prepared from cells following treatments or tumor tissues. Protein concentration was determined by Bradford protein assay kit (Bio-Rad, Hercules, CA). Samples were separated on precast 8%-12% SDS polyacrylamide gels. After electrophoresis, proteins were transferred to poly vinylidene difluoride (PVDF) membrane. The membranes were blocked with 5% non-fat milk in tris-buffered saline containing 0.1% Tween 20 (TBST) for 90 min at room temperature, then primary antibodies (1:1000) in TBST were added and membranes incubated overnight at 4°C. After washing with TBST, horseradish peroxidase (HRP)-conjugated secondary antibodies (1:3000) were added for 1 hour at room temperature. After additional washing with TBST, enhanced chemiluminescence detection system (ECL, GE Healthcare) was used. Membranes were probed for GAPDH as a loading control. The density of the immunoreactive bands was analyzed using Image J (National Institute of Health, MD).

[4] = test system: SGC-7901; assay: MTT assay, growth inhibition / cell viability; format: cell-based; conditions: Homo sapiens
Procedure: as §1, §2

[5] = test system: BGC-823; assay: MTT assay, growth inhibition / cell viability; format: cell-based; conditions: Homo sapiens
Procedure: as §1, §2

[6] = test system: p-PERK, p-eIF2α, ATF-4 and CHOP; assay: Western blot of ER stress proteins; format: cell-based, human; conditions: SGC-7901, 10 μM, 1, 3, 6 and 12 h
Procedure: as §3

[7] = test system: HT-29; assay: MTT assay, growth inhibition; format: cell-based; conditions: Homo sapiens, HT-29, 24 h
Procedure: as §1, §2

[8] = test system: GES-1; assay: MTT assay, growth inhibition in normal gastric epithelial cells; format: cell-based, human
Procedure: as §1, §2

[9] = H&E histology of vital organs of xenograft mice; format: in vivo; conditions: ip once a day for 12 days
Procedure: Portions of heart, liver, kidney and tumor tissues from mice were fixed in 4% paraformaldehyde solution for 1 week at room temperature. Specimens were then dehydrated by passing through graded ethanol, cleared in xylene, and embedded in paraffin wax. Tissue blocks were sectioned at 5 μm thickness and used for H&E and immunohistochemical staining. Tumor tissue sections were stained with indicated primary antibodies for overnight followed by secondary antibodies for 2 h. Diaminobenzidine (DAB) was used for detection. The slides were counterstained with hematoxylin for 30 seconds and mounted. For histologic analysis of heart, kidney and liver tissue sections, we performed routine H&E staining and viewed the sections under a light microscope (20× magnification, Nikon, Japan).

[10] = test system: SGC-7901; assay: Clonogenic (colony formation) assay; format: cell-based, human; conditions: SGC-7901, 2.5, 5 or 10 μM for 24 h, then 7 days culture
Procedure: (§4) The BGC-823 and SGC-7901 cells were seeded at 1000 cells/well in 6 well plates and allowed to attach overnight. Cells were then exposed to various concentrations (2.5, 5 and 10 μM) of CA10 for 24 h in presence and absence of NAC (5 mM). Following treatments, media was changed to fresh culture media and cultures were followed for 7 days. The experiment was terminated by washing the colonies with PBS and fixation with […] at room temperature for 10 min. Colonies were then stained with Crystal violet for 10 min and counted.

[11] = test system: BGC-823; assay: Clonogenic (colony formation) assay; format: cell-based, human; conditions: BGC-823, 2.5, 5 or 10 μM for 24 h, then 7 days culture
Procedure: as §4

[12] = test system: SGC-7901 cells; assay: Malondialdehyde (MDA) and total GSH in cancer cells; format: cell-based, human
Procedure: The treated cells were harvested with RIPA buffer at 4°C. Cell lysates were then centrifuged at 12,000 × g for 10 min at 4°C to collect the supernatant. Protein content was determined by the Bradford protein assay kit. Equal amounts of proteins were used for malondialdehyde (MDA) and total GSH assay (Beyotime Institute of Biotechnology, Nantong, China). MDA and total GSH levels were detected by measuring absorbance respectively at 532 nm and 412 nm using a multimode microplate reader (Molecular Devices, SpectraMax 190, USA

[13] = Body weight of xenograft mice; format: in vivo; conditions: 0–12 days, ip once a day; CA10 10 and 20 mg/kg, curcumin 50 mg/kg
Text: (§5) All animal experiments complied with the Wenzhou Medical University's Policy on the Care and Use of Laboratory Animals. Protocols for animal studies were approved by the Wenzhou Medical University Animal Policy and Welfare Committee (Approved documents: 2016/201). Athymic BALB/c nu/nu female mice weighing 20–22 g (6 weeks old) were purchased from Vital River Laboratories (Beijing, China). Animals were housed (6 animals/gage) at a constant room temperature with a 12/12-hr light/dark cycle and fed a standard rodent diet and water ad libitum. SGC-7901 cells were injected subcutaneously into the right flank of each mice at 1 × 10^6 cells in 0.1 mL PBS. Once tumors reached a volume of 100–200 mm^3, mice were randomly divided into 4 groups. These groups included mice treated with 10 mg/kg CA10, mice treated with 20 mg/kg CA10, mice treated 50 mg/kg curcumin, and control mice receiving vehicle alone. All treatments were carried out with intraperitoneal injections. The body weight and tumor volumes were monitored and determined by measuring length (l) and width (w) and calculated as tumor volume (V = 0.5 × l × w2) at the indicated time points. At the end of treatment period, mice were sacrificed and the tumors were removed and weighed for histological analyses and proteins measurement studies.

[14] = test system: SGC-7901 xenograft tumors; assay: In vivo mouse xenograft model, tumor growth; set-up: species or system mice
Text: as §5

In the case of `C=CCc1cc(C=C2CCC(=Cc3ccc(O)c(CC=C)c3)C2=O)ccc1O` [CA10], the inhibition at 20 µM [1] is reported as 77.4 ± 7.84%, the “% Of growth inhibition HCT-116” value ([2]; 20 μM, 24 h) is reported as 75.37 ± 4.52% and the inhibition at 20 µM ([2]; Homo sapiens, HCT-116, 24 h) is reported as 70%. The “protein levels of p-STAT3” value [3] was “decreased”, the IC50 ([4]; SGC-7901, 24 h) was 15 ± 1.72 µM and the inhibition at 20 µM ([4]; SGC-7901, 24 h, 20 μM, 24 h) was > 80%. For the same molecule, the IC50 ([4]; SGC-7901, 48 h) was 6.91 ± 0.43 µM, the inhibition at 20 µM ([5]; BGC-823, 20 μM, 24 h) was 67.5 ± 1.54% and the IC50 ([5]; BGC-823, 24 h) was 13 ± 2.48 µM. For the same molecule, the IC50 ([5]; BGC-823, 48 h) was 7.14 ± 1.69 µM, the “expression of ER specific proteins (p-PERK, p-eIF2α, ATF-4, CHOP)” value [6] was “increased expression” and the inhibition at 20 µM [7] was 77.2 ± 4.86%. The “inhibition of the normal epithelial cells (selective cytotoxicity in cancer cell lines), in words” value ([8]; 20 μM, 24 h) was “minimal inhibition”, the inhibition at 20 µM ([8]; Homo sapiens, GES1, 24 h, normal gastric epithelial cells) was 23.4 ± 7.48% and the “toxicity in vital organs (heart, liver, kidney), H&E” value [9] was “without overt toxicity”. The number of colonies [10] was “reduced number”, the number of colonies [11] was “reduced number” and the “level of total GSH” value ([12]; compared to control) was “no significant changes; also recorded: marginally decreased”. For the same molecule, the MDA level ([12]; enhanced at 20 μM) was “increased”, the “body weight of mice” value [13] was “no change” and the “inhibition effect on tumor growth compared to CA10 10 mg/kg or curcumin 50 mg/kg” value ([14]; 20 mg/kg ip once a day for 12 days) was “greater inhibition effect”. The “tumor weight and volume” value ([14]; ip once a day for 12 days, CA10 10 and 20 mg/kg, curcumin 50 mg/kg) was “significant reduction”.
